ChEMBL document CHEMBL1159149, “Phenalene metabolites from eichhornia crassipes” (1992)

Test system: Porphyridium aerugineum
Experiment: Compound at a conc of 2 umol was tested for antialgal activity against Porphyridium aerugineum in filter paper-petri dish bioassay
Format: functional

| Structure (SMILES) | Inhibition zone [mm] |
| --- | --- |
| COc1ccc2c(-c3ccccc3)cc(OC)c3c2c1CCC3OC (stereo not drawn) | 25 |
| COc1cc2ccc(-c3ccccc3)c3c2c(c1OC)CCC3OC (stereo not drawn) | 25 |
| COc1ccc(-c2cc(OC)c3c4c(c(OC)ccc24)CCC3OC)cc1 (stereo not drawn) | 25 |
